Where a name gives a salt, the structure may show the parent alone.
Columns and labels:
[1] = molecular target: kainate site (non-NMDA receptor); assay: Kainate site (non-NMDA receptor) binding (London and Coyle)
[2] = molecular target: AMPA receptor; assay: AMPA receptor binding (Honore et al.)
[3] = molecular target: T1, glycine site of the NMDA receptor (Rattus norvegicus, UniProt P35439); assay: Binding to the glycine site of the NMDA receptor (Jones et al.)
T1 construct: from tissue

Row | Structure (SMILES) | IC50 [1] [µM] | IC50 [2] [µM] | inhibition at 10 µM [3] [%]
1 | O=C(C1CCCCC1)N1CCc2c([N+](=O)[O-])cc3[nH]c(=O)c(=O)[nH]c3c2C1 [Example 36, 9-(Cyclohexylcarbonyl)-1,4,7,8,9,10-hexahydro-6-nitropyrido[3,4-f]quinoxaline-2,3-dione] | 5.87 | 0.34 | 88
2 | O=c1[nH]c2cc([N+](=O)[O-])c3c(c2[nH]c1=O)CN(Cc1ccc(C(F)(F)F)cc1)CC3 [Example 18] | 34 | 3.1 | –
3 | O=C(c1ccccc1)N1CCc2c([N+](=O)[O-])cc3[nH]c(=O)c(=O)[nH]c3c2C1 [Example 35, 9-Benzoyl-1,4,7,8,9,10-hexahydro-6-nitropyrido[3,4-f]quinoxaline-2,3-dione] | 1.38 | 0.37 | 80
4 | O=c1[nH]c2cc([N+](=O)[O-])c3c(c2[nH]c1=O)CNCC3 [Example 31, 1,4,7,8,9,10-Hexahydro-6-nitropyrido[3,4-f]quinoxaline-2,3-dione] | 0.48 | 51 | 70
5 | CC(C)(C)OC(=O)N1CCC(C(=O)N2CCc3ccc4[nH]c(=O)c(=O)[nH]c4c3C2)CC1 [Example 32, 1,1-dimethylethyl 4-[(1,2,3,4,7,8,9,10-octahydro-2,3-dioxopyrido[3,4-f]quinoxaline-9-yl)carbonyl]-1-piperidine carboxylate] | 65 | > 100 | –
6 | O=C(Cc1ccc(Cl)cc1)N1CCc2c([N+](=O)[O-])cc3[nH]c(=O)c(=O)[nH]c3c2C1 [Example 39] | 8.2 | 0.84 | 98
7 | O=c1[nH]c2ccc3c(c2[nH]c1=O)CCN(Cc1ccc(C(F)(F)F)cc1)C3 [Example 26] | > 100 | > 100 | –
8 | O=c1[nH]c2ccc3c(c2[nH]c1=O)CNCC3 [Example 30, 1,4,7,8,9,10-Hexahydropyrido[3,4-f]quinoxaline-2,3-dione] | 56 | 84 | –
9 | CC(C)(C)OC(=O)N1CCC(C(=O)N2CCc3c([N+](=O)[O-])cc4[nH]c(=O)c(=O)[nH]c4c3C2)CC1 [Example 34, 1,1-dimethylethyl 4-[(1,2,3,4,7,8,9,10-octahydro-6-nitro-2,3-dioxopyrido[3,4-f]quinoxaline-9-yl)carbonyl]-1-piperidine carboxylate] | 6.9 | 0.58 | 81
10 | O=C(c1ccc(Cl)cc1)N1CCc2c([N+](=O)[O-])cc3[nH]c(=O)c(=O)[nH]c3c2C1 [Example 37, 9-(4-Chlorobenzoyl)-1,4,7,8,9,10-hexahydro-6-nitropyrido[3,4-f]quinoxaline-2,3-dione] | 8.2 | 0.84 | 74
11 | O=c1[nH]c2ccc3c(c2[nH]c1=O)CN(Cc1ccc(C(F)(F)F)cc1)CC3 [Example 17, 1,4,7,8,9,10-Hexahydro-9-[[4-(trifluoromethyl)phenyl]methyl]pyrido[3,4-f]quinoxaline-2,3-dione] | > 100 | > 100 | –

Now from value to compound:

Row | IC50 [1] [µM] | IC50 [2] [µM] | inhibition at 10 µM [3] [%] | Structure (SMILES)
12 | 40 | > 100 | < 50 | O=c1[nH]c2cc(Br)c3c(c2[nH]c1=O)CN(CCCc1ccccc1)CC3 [Example 14, 6-Bromo-1,4,7,8,9,10-hexahydro-9-(3-phenylpropyl)pyrido[3,4-f]quinoxaline-2,3-dione]
13 | 67 | 21 | – | O=c1[nH]c2cc(Br)c3c(c2[nH]c1=O)CCN(Cc1cccc(C(F)(F)F)c1)C3 [Example 48, 6-Bromo-1,4,7,8,9,10-Hexahydro-8-[[3-(trifluoromethyl)methyl]pyrido[3,4-f]quinoxaline-2,3-dione hydrochloride]
14 | 1.62 | 0.24 | 99 | O=C(Cc1ccccc1)N1CCc2c([N+](=O)[O-])cc3[nH]c(=O)c(=O)[nH]c3c2C1 [Example 38, 1,4,7,8,9,10-Hexahydro-6-nitro-9-(phenylacetyl)pyrido(3,4-f]quinoxaline-2,3-dione]
15 | > 100 | 43 | – | O=c1[nH]c2cc(Br)c3c(c2[nH]c1=O)CCN(CCCc1ccccc1)C3 [Example 54, 6-Bromo-1,4,7,8,9,10-hexahydro-8-(3-Phenylproyl)pyrido[3,4-f]quinoxaline-2,3-dione hydrochloride]
16 | 16 | 20 | < 50 | O=c1[nH]c2cc(Br)c3c(c2[nH]c1=O)CN(Cc1ccccc1)CC3 [Example 8, 6-Bromo-1,4,7,8,9,10-hexahydro-9-(phenylmethyl)pryrido[3,4-f]quinoxaline-2,3-dione]
17 | 9 | > 100 | < 50 | O=c1[nH]c2cc(Br)c3c(c2[nH]c1=O)CN(CCc1ccccc1)CC3 [Example 11, 6-Bromo-1,4,7,8,9,10-hexahydro-9-(2-phenylethyl)pyrido[3,4-f]quinoxaline-2,3-dione]
